Where a name gives a salt, the structure may show the parent alone.
| SMILES | melting point [°C] |
| --- | --- |
| CNCc1cc2ccccc2nc1Oc1ccc(Cl)c(Cl)c1 (as salt: HCl) [Example 104, [2-(3,4-Dichlorophenoxy)-3-quinolinyl]-N-methylmethanamine] | 224 to 226 |
| CNCc1cccnc1Oc1ccc(Cl)c(Cl)c1 (as salt: HCl) [Example 105, [2-(3,4-Dichlorophenoxy)-3-pyridinyl]-N-methylmethanamine] | 198 to 203 |
| CNCc1cnccc1Oc1ccc(Cl)c(Cl)c1 (as salt: hydrochloride) [Example 103, [4-(3,4-Dichlorophenoxy)-3-pyridinyl]-N-methylmethanamine hydrochloride] | 198 to 203 |
| CN(C)Cc1cccnc1Oc1ccc(Cl)cc1 (as salt: hydrochloride) [Example 106, [2-(4-Chlorophenoxy)-3-pyridinyl]-N,N-dimethylmethanamine hydrochloride] | 195 to 197 |

From patent US7129234B2, “Phenyl heterocyclyl ethers” (Pfizer Inc., priority 2001, dated 2006)
